We go through 3 compounds from ChEMBL document CHEMBL5214948, “Boronic Acid: A Novel Pharmacophore Targeting Src Homology 2 (SH2) Domain of STAT3” (J Med Chem, 2022).

The target in series [1] is T1, Signal transducer and activator of transcription 3 (Homo sapiens, UniProt P40763). Nature of the series: Binding affinity to full length wild type STAT3-SH2 domain (unknown origin) assessed as association constant by SPR analysis. For orientation: In SPR one partner is held on a chip, and binding of the other changes the refractive index at the surface.
Series [2] addresses T1, Signal transducer and activator of transcription 3. The series can be described thus: Inhibition of STAT3 transcriptional activity transfected in HEK293T cells at 3 to 5 uM incubated for 24 hrs by dual-ludferase reporter gene assay. The note with it: dose 3-5 µM. The class given is cell-based. A general note: In a reporter assay the amount or activity of a reporter protein is the signal.

The test system of series [3] is MGC-803. The series can be described thus: Induction of apoptosis in human MGC-803 cells at 5 uM incubated for 72 hrs by V-FITC/PI staining based flow cytometry assay. The class given is functional. On the technique in general: In flow cytometry, cells or beads pass a laser one at a time.
The nature of series [4]: Toxicity in BALB/c nude mouse xenografted with MGC-803 cells assessed as effect on body weight at 15 mg/kg, ip measured every day for 20 days. Conditions: in vivo, 480 h, time 20 day. The class given is organism-based.
A short description of series [5]: Antiproliferative activity against […] H9c2 cells assessed as reduction in cell viability incubated for 72 hrs by CCK-8 assay. The class given is toxicity, cell-based. Conditions: rat.
Series [6] can be described thus: Toxicity in BALB/c nude mouse xenografted with MGC-803 cells assessed as effect on body weight at 5 mg/kg, ip measured every day for 20 days. The class given is organism-based. Conditions: in vivo, 480 h, time 20 day.
The subject of series [7] is MGC-803. The series can be described thus: Antiproliferative activity against human MGC-803 cells assessed as reduction in cell viability measured after 72 hrs by CCK-8 assay. The class given is functional, cell-based. The note with it: MGC-803, 72 h.
Series [8] has as its target T1, Signal transducer and activator of transcription 3. Nature of the series: Binding affinity to full length wild type STAT3-SH2 domain (unknown origin) in human MGC-803 cells assessed as thermal stabilization of protein at 37 to 53 degreeC at 5 uM incubated for 3 hrs by cellular thermal shift assay. The class given is cell-based.
The test system of series [9] is MGC-803. Nature of the series: Antiproliferative activity against human MGC-803 cells assessed as reduction in cell viability pretreated for 12 hrs followed by compound washout and measured after 24 hrs. The class given is functional, cell-based.
For series [10], the system named is AGS. The series can be described thus: Induction of apoptosis in human AGS cells at 3 uM incubated for 72 hrs by V-FITC/PI staining based flow cytometry assay. The class given is functional.
Series [11] deals with AGS. Nature of the series: Antiproliferative activity against human AGS cells assessed as reduction in cell viability incubated for 72 hrs by CCK-8 assay. The class given is functional, cell-based.
The subject of series [12] is MGC-803. Nature of the series: Antitumor activity against human MGC-803 cells xenografted in BALB/c nude mouse assessed as tumor growth inhibition at 15 mg/kg, ip measured every day for 20 days. The class given is functional. The note with it: time 20 day. On the set-up: scale not given: the % may be the effect or the level left.

The source made the active and inactive calls. The rule behind the calls is not given here.

T1 sequence (P40763 whole entry, the tested form may be a part): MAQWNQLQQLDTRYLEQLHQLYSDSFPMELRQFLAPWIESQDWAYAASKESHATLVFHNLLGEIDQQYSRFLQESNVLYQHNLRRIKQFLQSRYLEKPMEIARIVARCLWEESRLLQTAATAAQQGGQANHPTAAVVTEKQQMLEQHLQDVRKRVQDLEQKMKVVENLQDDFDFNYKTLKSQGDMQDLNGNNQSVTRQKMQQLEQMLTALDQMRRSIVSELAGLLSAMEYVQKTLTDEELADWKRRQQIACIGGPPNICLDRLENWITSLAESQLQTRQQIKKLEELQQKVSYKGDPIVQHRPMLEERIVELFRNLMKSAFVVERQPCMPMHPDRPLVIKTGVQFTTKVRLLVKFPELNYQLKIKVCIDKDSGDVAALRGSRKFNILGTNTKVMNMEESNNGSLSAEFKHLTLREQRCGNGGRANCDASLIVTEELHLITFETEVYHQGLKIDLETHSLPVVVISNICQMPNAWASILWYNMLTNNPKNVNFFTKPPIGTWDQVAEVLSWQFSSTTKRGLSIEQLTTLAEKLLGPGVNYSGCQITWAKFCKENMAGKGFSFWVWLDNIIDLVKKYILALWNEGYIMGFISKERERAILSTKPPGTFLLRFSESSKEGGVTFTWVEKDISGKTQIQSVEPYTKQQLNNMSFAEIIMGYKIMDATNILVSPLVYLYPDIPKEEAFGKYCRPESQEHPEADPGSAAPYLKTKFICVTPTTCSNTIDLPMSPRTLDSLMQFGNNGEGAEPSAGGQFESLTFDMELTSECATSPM

With `CN(CC(=O)N(Cc1ccc(C2CCCCC2)cc1)c1ccc(C(=O)O)cc1)S(=O)(=O)c1c(F)c(F)c(F)c(F)c1F`, in series [1], the Ka was 3.02 10^3/M/s. Also, the inhibition entry in series [2] is “Active”. The Activity is listed as 5.7% with MGC-803 [3]; “Non-Toxic” in series [4]; “Non-Toxic” in series [6]; 16.2% with AGS [10]; 49.05% with MGC-803 [12]. Moreover, in series [5], the 50% inhibitory concentration (IC50) (usually the concentration needed to halve the response being measured) at 72 h turned out to be 10.2 µM. Moreover, the 50% inhibitory concentration (IC50) in the series with MGC-803 [7] is 8.51 µM; with AGS [11], 5.42 µM. The outcome (in series [8]; with MGC-803 [9]) was Active.

In the case of `C[C@@H](C(=O)N(Cc1ccc(C2CCCCC2)cc1)c1ccc(B(O)O)cc1)N(C)S(=O)(=O)c1c(F)c(F)c(F)c(F)c1F`, the values for the half-inhibitory concentration (IC50) in the series with MGC-803 [7] and in the series on AGS [11] were 4.71 µM and 2.57 µM, respectively.

Turning to `C[C@H](C(=O)N(Cc1ccc(C2CCCCC2)cc1)c1ccc(B(O)O)cc1)N(C)S(=O)(=O)c1c(F)c(F)c(F)c(F)c1F`, the IC50 in the series on MGC-803 [7] was 3.13 µM; in the series on AGS [11], 1.72 µM.
